Results as given in US10695302B2, “Treatments for attention and cognitive disorders, and for dementia associated with a neurodegenerative disorder” (priority 2013, dated 2020).

Assays:
hSERT = hSERT (Homo sapiens, UniProt P31645); test: effect on efflux of monoamine neurotransmitters, hSERT; format: cell-based
hDAT = hDAT (Homo sapiens, UniProt Q01959); test: effect on efflux of monoamine neurotransmitters, hDAT; format: cell-based
hNET = hNET (Homo sapiens, UniProt P23975); test: effect on efflux of monoamine neurotransmitters, hNET; format: cell-based
male Sprague-Dawley rats [1] = test: sustained attention task (vigilance index); format: in vivo, rat
Procedure: The vigilance index (VI) of rats treated with SK609 was evaluated using the following protocol. Substantively, eight water restricted male Sprague-Dawley rats were trained in an operant task of sustained attention (McGaughy & Sarter, 1995, Psychopharm. 117:340-357). In response to both signal and non-signal conditions, a water reward was given for correct responses as a positive reinforcer. Rats were first trained by successive approximation to establish lever pressing behavior. Subjects were then trained to criterion performance on the sustained attention task with a 1,000 msec light stimulus duration and then transferred to 15 msec stimulus duration.
Performance was determined based on a rat's calculated VI: VI=(h−f)/[2*(h+f)−(h+f)^2], wherein h (relative hits)=# Hits/(# Hits+# Misses), and f ([…])=# False Alarms/(# False Alarms+# Correct Rejections).
VI of 1 indicates complete vigilance; VI of 0.35 indicates above chance vigilance; and VI of −1 indicates no vigilance.
Testing occurred over a 45 min session of randomly presented signal and non-signal trials. Criterion performance required a rat to achieve greater than 59% signal and non-signal trials, a VI greater than 0.35 and less than 25% omissions per day for three consecutive days. Once subjects stabilized at a baseline, their responses are no longer considered random.
SK609 was administered intraperitoneally (IP) at various doses 15 min prior to beginning the task. Prazosin was administered IP 30 min prior, and SK609 15 min prior to beginning the task. Data are presented as difference scores for VI from an average baseline (FIGS. 4-6).
The operant conditioning chambers contained a house light (2.8 W), a stimulus light (2.8 W), a pair of retractable levers and water reward apparatus. Eight water-restricted male Sprague-Dawley rats were trained in an operant task of sustained attention. In response to both signal and non-signal conditions, a water reward was given for correct responses as a positive reinforcer.
Rats were first trained by successive approximation to establish lever pressing behavior. Subsequently, the rats were trained to criterion performance. Criterion performance required a rat to achieve greater than 59% signal and non-signal trials, a VI greater than 0.35 and less than 25% omissions per day for three consecutive days.
Prazosin (0.25 mg/kg) and raclopride (0.05 mg/kg) were administered (IP) 30 min prior to the experiment followed by either SK609 (4.0 mg/kg) or MPH (2.0 mg/kg) 15 min prior to beginning the task. Performance was determined based on a rat's calculated Vigilance Index (VI). Data are presented as difference scores for VI from an average baseline.

male Sprague-Dawley rats [2] = test: set-shifting task; format: in vivo, rat; details: IP, SK609 4.0 mg/kg or raclopride 0.05 mg/kg, versus saline
From the text: Sixteen food-restricted male Sprague-Dawley rats were trained to discriminate between a pair of small ceramic pots in order to retrieve a food reward buried within one of the pots. A pair of pots differed from each other along three possible dimensions: scent, digging medium, or material covering the outer surface of the pot.
Simple discriminations (SD) were made between pots differing from each other along one dimension. Compound Discriminations (CD) were made between pots differing along two dimensions. Intra-dimensional Shifts (IDS) were changes made within a previously tested dimension. Extra-Dimensional Shifts (EDS) were changes made to a previously untested dimension.
Animals were tested on their ability to form an attentional set by attending to the dimension that predicts the food reward. Animals were then tested on their ability to make an IDS, EDS, or reversal by responding only to the new salient dimension while suppressing the urge to respond to the previously salient stimulus.
0.9% saline (1 mg/kg), raclopride (0.05 mg/kg) or SK609 (4 mg/kg) were administered (IP) 30 prior to the experiment followed by 0.9% saline (1 mg/kg) 15 min prior to beginning the task. Animals were tested to criterion performance of 5 consecutive correct trials.

male Sprague-Dawley rats [3] = test: cross maze task; format: in vivo, rat
From the text: The experimental design for cross maze task was adapted from Stefani et al, 2003, Behav. Neurosci. 117(4):728-37 (FIG. 7). Ten food-restricted male Sprague-Dawley rats were acclimated to a cross maze whose arms differed by color (red vs blue) or texture (smooth vs rough). A food reward was placed in a food well located at the end of the arm.
Rats were trained to form a mental set by associating a food reward with one feature of one dimension. Rats were subsequently tested on their ability to predict the food reward based on one feature of the alternative dimension.
0.9% saline (1 mg/kg), raclopride (0.05 mg/kg) or SK609 (4 mg/kg) were administered (IP) 30 prior to the experiment, followed by 0.9% saline (1 mg/kg) 15 min prior to beginning the task. Animals were tested to criterion performance of 8 consecutive correct trials.

[4] = efflux measured as percentage of vehicle, FIG. 1
[5] = panel of monoamine neurotransmitter transporters
[6] = SK609 IP 4.0 mg/kg, prazosin IP 0.25 mg/kg or raclopride IP 0.05 mg/kg 30 min prior
[7] = SK609 peak dose 8 mg/kg, FIG. 4

Sequence of hSERT (P31645 whole entry): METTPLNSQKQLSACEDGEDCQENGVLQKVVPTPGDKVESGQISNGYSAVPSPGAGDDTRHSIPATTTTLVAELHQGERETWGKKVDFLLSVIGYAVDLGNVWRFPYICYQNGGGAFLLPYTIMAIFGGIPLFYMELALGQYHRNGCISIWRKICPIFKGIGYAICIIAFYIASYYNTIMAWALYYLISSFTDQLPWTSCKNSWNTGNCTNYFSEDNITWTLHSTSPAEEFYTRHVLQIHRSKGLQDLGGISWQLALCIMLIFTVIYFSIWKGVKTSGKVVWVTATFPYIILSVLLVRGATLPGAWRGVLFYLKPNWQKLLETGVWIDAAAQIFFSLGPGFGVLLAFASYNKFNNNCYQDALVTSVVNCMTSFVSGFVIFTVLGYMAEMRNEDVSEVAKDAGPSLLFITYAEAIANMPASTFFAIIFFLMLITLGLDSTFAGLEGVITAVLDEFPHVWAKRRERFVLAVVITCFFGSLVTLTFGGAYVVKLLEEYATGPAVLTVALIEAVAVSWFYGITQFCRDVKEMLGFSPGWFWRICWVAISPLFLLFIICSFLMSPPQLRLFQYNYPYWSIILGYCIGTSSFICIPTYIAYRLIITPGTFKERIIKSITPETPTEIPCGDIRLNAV
Sequence of hDAT (Q01959 whole entry): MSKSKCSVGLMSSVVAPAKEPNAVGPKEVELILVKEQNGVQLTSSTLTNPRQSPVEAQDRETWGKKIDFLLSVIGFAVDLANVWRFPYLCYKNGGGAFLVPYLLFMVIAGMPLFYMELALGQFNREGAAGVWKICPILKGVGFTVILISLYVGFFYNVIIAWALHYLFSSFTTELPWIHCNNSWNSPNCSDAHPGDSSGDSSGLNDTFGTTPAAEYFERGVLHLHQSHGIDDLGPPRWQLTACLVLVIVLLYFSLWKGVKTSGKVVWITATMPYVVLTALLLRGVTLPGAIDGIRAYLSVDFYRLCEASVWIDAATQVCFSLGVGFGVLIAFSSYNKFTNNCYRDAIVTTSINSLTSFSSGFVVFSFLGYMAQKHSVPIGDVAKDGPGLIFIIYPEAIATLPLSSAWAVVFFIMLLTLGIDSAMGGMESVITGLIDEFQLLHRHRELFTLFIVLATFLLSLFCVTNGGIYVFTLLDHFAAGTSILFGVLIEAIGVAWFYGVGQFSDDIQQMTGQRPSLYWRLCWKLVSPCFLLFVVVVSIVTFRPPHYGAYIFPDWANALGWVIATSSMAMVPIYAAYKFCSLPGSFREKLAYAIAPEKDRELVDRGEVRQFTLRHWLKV
Sequence of hNET (P23975 whole entry): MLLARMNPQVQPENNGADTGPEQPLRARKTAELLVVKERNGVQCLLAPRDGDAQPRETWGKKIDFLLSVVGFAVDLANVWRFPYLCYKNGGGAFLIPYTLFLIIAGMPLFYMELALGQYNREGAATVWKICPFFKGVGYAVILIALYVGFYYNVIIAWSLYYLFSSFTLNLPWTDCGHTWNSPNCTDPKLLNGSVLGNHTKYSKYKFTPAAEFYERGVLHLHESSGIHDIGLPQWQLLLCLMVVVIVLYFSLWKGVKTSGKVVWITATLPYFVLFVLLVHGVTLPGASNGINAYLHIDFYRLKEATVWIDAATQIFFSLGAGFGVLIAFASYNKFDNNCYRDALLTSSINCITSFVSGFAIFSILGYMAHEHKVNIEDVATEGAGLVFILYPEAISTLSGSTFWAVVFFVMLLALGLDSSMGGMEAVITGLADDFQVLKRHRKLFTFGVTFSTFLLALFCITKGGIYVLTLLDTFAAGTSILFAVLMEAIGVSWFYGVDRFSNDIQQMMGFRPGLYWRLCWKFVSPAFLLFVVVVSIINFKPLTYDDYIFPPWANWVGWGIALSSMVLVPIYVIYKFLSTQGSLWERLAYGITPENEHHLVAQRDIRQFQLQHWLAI

CC(N)CCc1ccccc1Cl (stereo not shown) [SK609, 4-(2-chlorophenyl)-butan-2-amine]
IC50 (hSERT; [4]): 35.9 µM | effect on serotonin transporters (SERT) (hSERT; [5]): no effect | IC50 (hDAT; [4]): 8.5 µM | effect on dopamine transporters (DAT) (hDAT; [5]): no effect | IC50 (hNET; [4]): 0.29 µM | effect on NET (hNET; [5]): selective NET antagonism | peak dose for vigilance index (VI) performance (male Sprague-Dawley rats [1]; IP, doses 2, 4, 8, 10 and 20 mg/kg, inverted-U dose response): 8 mg/kg | % omissions (male Sprague-Dawley rats [1]; SK609 8 mg/kg IP): without increasing omissions | sustained attention (VI difference from baseline) (male Sprague-Dawley rats [1]; SK609 8 mg/kg IP, 15 min prior to task): enhanced sustained attention | % omissions (male Sprague-Dawley rats [1]; SK609 high doses IP): increased the % of omissions | performance in EDS, IDS, CD of set-shifting task (male Sprague-Dawley rats [2]): did not differ significantly from saline | cross maze overall performance in 8 trial increments over 80 trials (male Sprague-Dawley rats [3]; SK609 IP 4.0 mg/kg vs saline, p=0.008, FIG. 10B): improved performance faster and maintained improvements better than saline | cross maze performance (number of trials to reach criterion) (male Sprague-Dawley rats [3]; SK609 IP 4.0 mg/kg, n=5 vs saline n=2, p=0.027, FIG. 10A): improved performance relative to saline

COc1cc2nc(N3CCN(C(=O)c4ccco4)CC3)nc(N)c2cc1OC [prazosin, 2-[4-(2-furoyl)piperazin-1-yl]-6,7-dimethoxyquinazolin-4-amine, reference compound]
effect of antagonist pre-treatment on MPH VI performance (male Sprague-Dawley rats [1]; MPH IP 2.0 mg/kg, prazosin IP 0.25 mg/kg, n=8): blocked the effects | effect of antagonist pre-treatment on SK609 VI performance (male Sprague-Dawley rats [1]; [6]): blocked the effects | effect of antagonist pre-treatment on SK609 VI performance (male Sprague-Dawley rats [1]; [7]): completely abrogated

CCN1CCC[C@H]1CNC(=O)c1c(O)c(Cl)cc(Cl)c1OC [raclopride, 3,5-dichloro-N-{[(2S)-1-ethylpyrrolidin-2-yl]methyl}-2-hydroxy-6-methoxybenzamide, reference compound]
effect of antagonist pre-treatment on SK609 VI performance (male Sprague-Dawley rats [1]; [6]): blocked the effects | effect of antagonist pre-treatment on SK609 VI performance (male Sprague-Dawley rats [1]; [7]): moderately | performance in EDS, IDS, CD of set-shifting task (male Sprague-Dawley rats [2]): impairments in performance relative to controls
